Source: patent US20110021570A1, “PYRIDONE GLUCOKINASE ACTIVATORS” (priority 2009, published 2011)

Each compound was assayed against T1, Recombinant human liver GK1 (GST-GK) (Homo sapiens, UniProt P35557) (assay: Glucokinase in vitro assay (G6PDH-coupled, NADH generation)). Settings: concentration of activator that produced a 50% increase in the activity of GK; 5 mM D-glucose, 30° C., pH 7.1.
T1 construct: made in house; host or cells: E. coli
T1 sequence (P35557 1-466 isoform P35557-2): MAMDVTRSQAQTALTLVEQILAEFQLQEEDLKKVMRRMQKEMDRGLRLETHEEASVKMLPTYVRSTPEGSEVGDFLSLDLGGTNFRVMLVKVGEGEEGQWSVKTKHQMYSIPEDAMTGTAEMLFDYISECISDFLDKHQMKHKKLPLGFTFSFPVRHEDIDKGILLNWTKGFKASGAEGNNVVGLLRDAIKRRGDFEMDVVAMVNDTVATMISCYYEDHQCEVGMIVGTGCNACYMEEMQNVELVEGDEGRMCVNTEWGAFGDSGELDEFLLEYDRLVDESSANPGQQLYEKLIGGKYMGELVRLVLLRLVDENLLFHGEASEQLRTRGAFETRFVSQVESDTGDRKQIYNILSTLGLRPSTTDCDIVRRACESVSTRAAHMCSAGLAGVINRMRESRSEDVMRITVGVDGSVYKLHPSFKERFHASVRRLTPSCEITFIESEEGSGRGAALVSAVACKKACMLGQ
Format: biochemical
Procedure: Glucokinase In Vitro Assay Protocol: Glucokinase (GK) was assayed by coupling the production of glucose-6-phosphate to the generation of NADH with glucose-6-phosphate dehydrogenase (G6PDH, 0.75-1 kunits/mg; Boehringer Mannheim, Indianapolis, Ind.) from Leuconostoc mesenteroides as the coupling enzyme:
Recombinant human liver GK1 was expressed in E. coli as a glutathione S-transferase fusion protein (GST-GK) [Liang et al, 1995] and was purified by chromatography over a glutathione-Sepharose 4B affinity column using the procedure provided by the manufacturer (Amersham Pharmacia Biotech, Piscataway, N.J.).
The assay was conducted at 30° C. in a flat bottom 96-well tissue culture plate from Costar (Cambridge, Mass.) with a final incubation volume of 120 μL. The incubation reaction contained the following: 25 mM Hepes buffer (pH 7.1), 25 mM KCl, 5 mM D-glucose, 1 mM ATP, 1.8 mM NAD, 2 mM MgCl2, 1 μM sorbitol-6-phosphate, 1 mM dithiothreitol, test drug or 10% DMSO, ˜7 units/ml G6PDH, and GK (see below). All organic reagents were >98% pure and were from Boehringer Mannheim with the exceptions of D-glucose and Hepes which were from Sigma Chemical Co, St Louis, Mo. Test compounds were dissolved in DMSO and were added to the incubation reaction minus GST-GK in a volume of 12 μL to yield a final DMSO concentration of 10%. This mix was pre-incubated in the temperature controlled chamber of a SPECTRAmax 250 microplate spectrophotometer (Molecular Devices Corporation, Sunnyvale, Calif.) for 10 minutes to allow temperature equilibrium and then the reaction was started by the addition of […].
After addition of enzyme, the increase in optical density (OD) at 340 nm was monitored spectrophotometrically to determine the rate of change (OD340 per min). The GK activity (0D340/min) in control wells (10% DMSO minus GK activators) was compared with the activity in wells containing test GK activators, and the concentration of activator that produced a 50% increase in the activity of GK, i.e., the SC1.5, was calculated. The table below provides the in vitro glucokinase activity for the compounds in the Examples: […]

| SMILES | SC1.5 average [µM] |
| --- | --- |
| CC(C)CC(C(=O)Nc1ccn(C)n1)n1ccc(Oc2cccc(F)c2F)cc1=O (stereo not drawn) [Example 1, 2-[4-(2,3-Difluoro-phenoxy)-2-oxo-2H-pyridin-1-yl]-4-methyl-pentanoic acid (1-methyl-1H-pyrazol-3-yl)-amide] | 10.4 |
| CC(C)CC(C(=O)Nc1ccn(C)n1)n1ccc(Oc2c(F)cccc2F)cc1=O (stereo not drawn) [Example 5, 2-[4-(2,6-Difluoro-phenoxy)-2-oxo-2H-pyridin-1-yl]-4-methyl-pentanoic acid (1-methyl-1H-pyrazol-3-yl)-amide] | 4.2 |
| CC(C)CC(C(=O)Nc1ccn(C)n1)n1ccc(Oc2ccc(F)cc2)cc1=O (stereo not drawn) [Example 7, 2-[4-(4-Fluoro-phenoxy)-2-oxo-2H-pyridin-1-yl]-4-methyl-pentanoic acid (1-methyl-1H-pyrazol-3-yl)-amide] | >30 |
| CC(C)CC(C(=O)Nc1ccn(C)n1)n1ccc(Oc2ccccc2-c2ccccc2)cc1=O (stereo not drawn) [Example 9, 2-[4-(Biphenyl-2-yloxy)-2-oxo-2H-pyridin-1-yl]-4-methyl-pentanoic acid (1-methyl-1H-pyrazol-3-yl)-amide] | >30 |
| CC(C)CC(C(=O)Nc1ccn(C)n1)n1ccc(Oc2ccccc2C(C)C)cc1=O (stereo not drawn) [Example 10, 2-[4-(2-Isopropyl-phenoxy)-2-oxo-2H-pyridin-1-yl]-4-methyl-pentanoic acid (1-methyl-1H-pyrazol-3-yl)-amide] | 4.5 |
| CC(C)CC(C(=O)Nc1ccn(C)n1)n1ccc(Oc2ccc(F)cc2F)cc1=O (stereo not drawn) [Example 11, 2-[4-(2,4-Difluoro-phenoxy)-2-oxo-2H-pyridin-1-yl]-4-methyl-pentanoic acid (1-methyl-1H-pyrazol-3-yl)-amide] | 22.5 |
| Cc1c(Cl)cccc1Oc1ccn(C(CC(C)C)C(=O)Nc2ccn(C)n2)c(=O)c1 (stereo not drawn) [Example 12, 2-[4-(3-Chloro-2-methyl-phenoxy)-2-oxo-2H-pyridin-1-yl]-4-methyl-pentanoic acid (1-methyl-1H-pyrazol-3-yl)-amide] | 9.0 |
| CC(C)CC(C(=O)Nc1ccn(C)n1)n1ccc(Oc2cc(F)ccc2F)cc1=O (stereo not drawn) [Example 13, 2-[4-(2,5-Difluoro-phenoxy)-2-oxo-2H-pyridin-1-yl]-4-methyl-pentanoic acid (1-methyl-1H-pyrazol-3-yl)-amide] | 16.6 |
| CC(C)CC(C(=O)Nc1ccn(C)n1)n1ccc(Oc2ccccc2OC(F)(F)F)cc1=O (stereo not drawn) [Example 16, 4-Methyl-2-[2-oxo-4-(2-trifluoromethoxy-phenoxy)-2H-pyridin-1-yl]pentanoic acid (1-methyl-1H-pyrazol-3-yl)-amide] | 8.8 |
| COc1ccccc1Oc1ccn(C(CC(C)C)C(=O)Nc2ccn(C)n2)c(=O)c1 (stereo not drawn) [Example 18, 2-[4-(2-Methoxy-phenoxy)-2-oxo-2H-pyridin-1-yl]-4-methyl-pentanoic acid (1-methyl-1H-pyrazol-3-yl)-amide] | 8.1 |

The remaining lines, values ahead:

| SC1.5 average [µM] | SMILES |
| --- | --- |
| >30 | CC(C)CC(C(=O)Nc1ccn(C)n1)n1ccc(Oc2cccc(F)c2)cc1=O (stereo not drawn) [Example 2, 2-[4-(3-Fluoro-phenoxy)-2-oxo-2H-pyridin-1-yl]-4-methyl-pentanoic acid (1-methyl-1H-pyrazol-3-yl)-amide] |
| 21.7 | CC(C)CC(C(=O)Nc1ccn(C)n1)n1ccc(Oc2ccccc2)cc1=O (stereo not drawn) [Example 3, 4-Methyl-2-(2-oxo-4-phenoxy-2H-pyridin-1-yl)-pentanoic acid (1-methyl-1H-pyrazol-3-yl)-amide] |
| 7.3 | Cc1ccccc1Oc1ccn(C(CC(C)C)C(=O)Nc2ccn(C)n2)c(=O)c1 (stereo not drawn) [Example 4, 4-Methyl-2-(2-oxo-4-o-tolyloxy-2H-pyridin-1-yl)-pentanoic acid (1-methyl-1H-pyrazol-3-yl)-amide] |
| 11.4 | CC(C)CC(C(=O)Nc1ccn(C)n1)n1ccc(Oc2ccccc2C(F)(F)F)cc1=O (stereo not drawn) [Example 6, 4-Methyl-2-[2-oxo-4-(2-trifluoromethyl-phenoxy)-2H-pyridin-1-yl]-pentanoic acid (1-methyl-1H-pyrazol-3-yl)-amide] |
| 26.1 | CC(C)CC(C(=O)Nc1ccn(C)n1)n1ccc(Oc2cccnc2)cc1=O (stereo not drawn) [Example 8, 4-Methyl-2-[2-oxo-4-(pyridin-3-yloxy)-2H-pyridin-1-yl]-pentanoic acid (1-methyl-1H-pyrazol-3-yl)-amide] |
| 2.6 | CC(C)CC(C(=O)Nc1ccn(C)n1)n1ccc(Oc2cccc3ccccc23)cc1=O (stereo not drawn) [Example 14, 4-Methyl-2-[4-(naphthalen-1-yloxy)-2-oxo-2H-pyridin-1-yl]-pentanoic acid (1-methyl-1H-pyrazol-3-yl)-amide] |
| 6.2 | CC(C)CC(C(=O)Nc1ccn(C)n1)n1ccc(Oc2ccccc2Cl)cc1=O (stereo not drawn) [Example 15, 2-[4-(2-Chloro-phenoxy)-2-oxo-2H-pyridin-1-yl]-4-methyl-pentanoic acid (1-methyl-1H-pyrazol-3-yl)-amide] |
| 8.4 | CC(C)CC(C(=O)Nc1ccn(C)n1)n1ccc(Oc2ccccc2F)cc1=O (stereo not drawn) [Example 17, 2-[4-(2-Fluoro-phenoxy)-2-oxo-2H-pyridin-1-yl]-4-methyl-pentanoic acid (1-methyl-1H-pyrazol-3-yl)-amide] |
